Literature values as cited in US20140045904A1, “NIACIN FORMULATIONS AND METHODS WITH REDUCED FLUSHING SIDE EFFECT” (priority 2010, published 2014).

Legend:
PGD-2 = details: niacin given orally (500 mg)
HDL cholesterol = details: low doses of niacin (300-1,000 mg/day)
prostacyclin (PGI-2) = details: ingestion of oral niacin
rat macrophages = details: dual inhibitor of COX-1 and COX-2
niacin-induced flushing = details: rofecoxib: single dose of 500 mg immediate-release niacin; laropiprant: clinical trials; aspirin: oral niacin
COX-2 = COX-2 (Homo sapiens, UniProt P35354); details: while sparing COX-1
Sequence of COX-2 (P35354 18-604): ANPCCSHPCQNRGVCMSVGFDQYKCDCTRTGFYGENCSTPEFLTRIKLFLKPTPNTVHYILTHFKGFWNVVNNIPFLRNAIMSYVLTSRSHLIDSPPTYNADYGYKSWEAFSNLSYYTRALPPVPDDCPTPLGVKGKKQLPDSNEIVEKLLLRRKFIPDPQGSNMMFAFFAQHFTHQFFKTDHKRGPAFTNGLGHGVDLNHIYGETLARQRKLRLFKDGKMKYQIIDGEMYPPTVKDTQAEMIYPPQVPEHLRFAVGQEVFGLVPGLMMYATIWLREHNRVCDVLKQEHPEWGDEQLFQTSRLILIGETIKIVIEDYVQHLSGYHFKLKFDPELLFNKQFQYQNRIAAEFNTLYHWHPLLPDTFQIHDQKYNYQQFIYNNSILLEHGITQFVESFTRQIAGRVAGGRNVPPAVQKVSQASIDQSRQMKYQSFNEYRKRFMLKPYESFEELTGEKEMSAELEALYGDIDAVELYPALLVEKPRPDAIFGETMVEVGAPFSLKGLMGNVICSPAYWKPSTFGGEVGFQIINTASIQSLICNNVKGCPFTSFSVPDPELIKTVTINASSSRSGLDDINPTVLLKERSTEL

## O=C(O)c1cccnc1 [niacin, pyridine-3-carboxylic acid]
PGD-2
  increase of levels of the major metabolite of PGD-2: 400 to 800 fold
  time to decline of PGD-2 metabolite to near normal levels: 2 to 4 h
  time to increase of PGD-2 metabolite after ingestion: 12 to 45 min
HDL cholesterol
  raise of HDL cholesterol: up to 45%
Prostacyclin (PGI-2)
  increase in prostacyclin (PGI-2): 2 fold
  major urinary metabolite of PGE-2 (PGE-M): does not increase

## COc1ccc2c(c1)c(CC(=O)O)c(C)n2C(=O)c1ccc(Cl)cc1 [indomethacin]
Rat macrophages
  endogenous production of PGE-2 and PGD-2: suppressed

## CC(=O)Oc1ccccc1C(=O)O [aspirin]
niacin-induced flushing
  effect of pretreatment on flushing from niacin: can suppress the flush

## CS(=O)(=O)c1cc(F)cc2c3c(n(Cc4ccc(Cl)cc4)c12)[C@@H](CC(=O)O)CC3 [laropiprant]
niacin-induced flushing
  effect of pretreatment on flushing from niacin: substantially reduced, but fell far short of eliminating

## CS(=O)(=O)c1ccc(C2=C(c3ccccc3)C(=O)OC2)cc1 [rofecoxib]
niacin-induced flushing
  effect of pretreatment on flushing from niacin: did not result in a reduction of flushing
COX-2
  inhibition of COX-2 in vivo: about 90%
